In data set [1] the test system is P388 murine leukemia cell lines. The experiment in a line: Cytotoxicity against P388 murine leukemia cells.
Data set [2] relates to A2058 melanoma cell line. The experiment in a line: Cytotoxicity against A2058 melanoma cells.
Data set [3] concerns DU145 prostate cancer cell line. The experiment in a line: Cytotoxicity against DU145 prostate cancer cells.
Data set [4] concerns NCI 60 cell line panel. The experiment in a line: NCI 60 cell line panel evaluation. The note with it: read-out: mean GI50. Type of data set: cell-based.
Setting [5] is: read-out: Cytotoxicity IC50, A2058, A2058 melanoma cells.
The mark [6] stands for this setting: read-out: Cytotoxicity IC50, P388, P388 murine leukemia cells.
[7] abbreviates: read-out: Cytotoxicity IC50, DU145, DU145 prostate cancer cells.
Where [8] appears, read: Homo sapiens, A2058, read-out: Cytotoxicity IC50, A2058.
The mark [9] stands for this setting: Homo sapiens, DU-145, read-out: Cytotoxicity IC50, DU145.

Where two headings read alike, the source gives them in different places.

What is called IC50 is the concentration at which inhibition is half-maximal. Regarding `C=C1[C@@H](O)C[C@H]2C(C)(C)[C@@H](Cl)[C@H](Cl)C[C@]2(C)[C@H]1C[C@H](O)[C@H]1CC(=O)NC1=O` [compound 4, dichlorolissoclimide, reference compound], in data set [1] (Mus musculus, P388, read-out: Cytotoxicity IC50 against P388), the IC50 was about 400 nM.

On to `C=C1[C@@H](OC(C)=O)C[C@H]2C(C)(C)C[C@H](Cl)C[C@]2(C)[C@H]1C[C@H](O)[C@H]1CC(=O)NC1=O` [compound 7], for which the 50% inhibitory concentration (IC50) in data set [2] (setting [5]) was determined as 3460 nM; in data set [1] (setting [6]) it was 2100 nM; in data set [3] (setting [7]) it was 460 nM.

The term GI50 denotes the concentration at which growth is held to half of that of the control. Take `C=C1[C@@H](O)C[C@H]2C(C)(C)C[C@H](Cl)C[C@]2(C)[C@H]1C[C@H](O)[C@H]1CC(=O)NC1=O` [compound 3, chlorolissoclimide]: the IC50 in data set [2] (setting [8]) stood at 250 nM; in data set [3] (setting [9]), 490 nM. Besides, the GI50 in data set [4] was 15 nM.

As for `COC(=O)C[C@](O)(CCCC(C)(C)O)C(=O)O[C@@H]1C(OC)=C[C@]23CCCN2CCc2cc4c(cc2[C@H]13)OCO4` [compound 1, homoharringtonine, reference compound], the IC50 was 170 nM in data set [2] (setting [8]) and 230 nM in data set [3] (setting [9]).

`C=C1[C@@H](O)C[C@H]2C(C)(C)CCC[C@]2(C)[C@H]1C[C@H](O)[C@H]1CC(=O)NC1=O` [compound 8, haterumaimide Q]: the IC50 in data set [2] (setting [5]) came to 2340 nM; in data set [1] (setting [6]), 200 nM; in data set [3] (setting [7]), 1490 nM.

Turning to `C[C@@H]1C[C@@H]([C@H](O)CC2CC(=O)NC(=O)C2)C(=O)[C@@H](C)C1` [compound 2, cycloheximide, reference compound], the IC50 is over 10000 nM in data set [2] (setting [8]); 5600 nM in data set [1] (Mus musculus, P388, read-out: Cytotoxicity IC50, P388); over 10000 nM in data set [3] (setting [9]).

For the origin of these results see paper PMC6021127 (Nature chemistry, 2017).
